In ChEMBL document CHEMBL1201862, “PubChem BioAssay data set” (2004):
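Each compound was tested at five concentrations against cells in 96-well plates for 48 hours. GI50: concentration for 50% inhibition of growth.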 The source made the active and inactive calls. Rule as the data show it: active = GI50 up to about 1.1 µM and inactive = higher.

Legend:
Test in all cases: NCI tumour cell line growth inhibition, 48 h
UACC-257 = tested on: UACC-257
MCF7 = tested on: MCF7
PC-3 = tested on: PC-3
SNB-19 = tested on: SNB-19
EKVX = tested on: EKVX
MOLT-4 = tested on: MOLT-4
UACC-62 = tested on: UACC-62
MDA-MB-435 = tested on: MDA-MB-435
A498 = tested on: A498
UO-31 = tested on: UO-31
SK-MEL-5 = tested on: SK-MEL-5
Hs-578T = tested on: Hs-578T
SR = tested on: SR
MDA-MB-231 = tested on: MDA-MB-231
CAKI-1 = tested on: CAKI-1
HCC 2998 = tested on: HCC 2998
COLO 205 = tested on: COLO 205
Malme-3M = tested on: Malme-3M
OVCAR-3 = tested on: OVCAR-3
ACHN = tested on: ACHN
CCRF-CEM = tested on: CCRF-CEM
HT-29 = tested on: HT-29
RPMI-8226 = tested on: RPMI-8226
MDA-N = tested on: MDA-N
SNB-75 = tested on: SNB-75
NCI-H522 = tested on: NCI-H522
U-251 = tested on: U-251
OVCAR-5 = tested on: OVCAR-5
SK-MEL-2 = tested on: SK-MEL-2
T47D = tested on: T47D
BT-549 = tested on: BT-549
SK-OV-3 = tested on: SK-OV-3
SF-539 = tested on: SF-539
SF-295 = tested on: SF-295
TK-10 = tested on: TK-10
A549 = tested on: A549
OVCAR-4 = tested on: OVCAR-4
SF-268 = tested on: SF-268
NCI-H23 = tested on: NCI-H23
HCT-116 = tested on: HCT-116
DU-145 = tested on: DU-145
NCI-H460 = tested on: NCI-H460
786-0 = tested on: 786-0
NCI/ADR-RES = tested on: NCI/ADR-RES
LOX IMVI = tested on: LOX IMVI
SW-620 = tested on: SW-620
HOP-62 = tested on: HOP-62
K562 = tested on: K562
SN12C = tested on: SN12C
HL-60 = tested on: HL-60
HCT-15 = tested on: HCT-15
KM12 = tested on: KM12
NCI-H226 = tested on: NCI-H226
IGROV-1 = tested on: IGROV-1
OVCAR-8 = tested on: OVCAR-8
SK-MEL-28 = tested on: SK-MEL-28
HOP-92 = tested on: HOP-92
M14 = tested on: M14
RXF 393 = tested on: RXF 393

## O=C1CSC(c2ccccc2[N+](=O)[O-])N1c1ccc(-n2c(-c3ccccc3)nc3ccccc3c2=O)cc1 (configuration not stated)
UACC-257
  GI50: > 100 µM (inactive)
MCF7
  GI50: 32.4 µM (inactive)
PC-3
  GI50: 35.7 µM (inactive)
SNB-19
  GI50: 32.7 µM (inactive)
EKVX
  GI50: 47.4 µM (inactive)
MOLT-4
  GI50: 16.6 µM (inactive)
UACC-62
  GI50: 33.4 µM (inactive)
MDA-MB-435
  GI50: > 100 µM (inactive)
A498
  GI50: 38.4 µM (inactive)
UO-31
  GI50: 13.9 µM (inactive)
SK-MEL-5
  GI50: 70.5 µM (inactive)
Hs-578T
  GI50: 20.8 µM (inactive)
SR
  GI50: 19.8 µM (inactive)
MDA-MB-231
  GI50: 46.3 µM (inactive)
CAKI-1
  GI50: 67.9 µM (inactive)
HCC 2998
  GI50: 46.5 µM (inactive)
COLO 205
  GI50: 99.1 µM (inactive)
Malme-3M
  GI50: 39.8 µM (inactive)
OVCAR-3
  GI50: 79.6 µM (inactive)
ACHN
  GI50: 61 µM (inactive)
CCRF-CEM
  GI50: 41.1 µM (inactive)
HT-29
  GI50: 54.3 µM (inactive)
RPMI-8226
  GI50: > 100 µM (inactive)
MDA-N
  GI50: > 100 µM (inactive)
SNB-75
  GI50: 19.5 µM (inactive)
NCI-H522
  GI50: 22.4 µM (inactive)
U-251
  GI50: 17.7 µM (inactive)
OVCAR-5
  GI50: > 100 µM (inactive)
SK-MEL-2
  GI50: 55.8 µM (inactive)
T47D
  GI50: 23.7 µM (inactive)
BT-549
  GI50: 57.7 µM (inactive)
SK-OV-3
  GI50: 12.5 µM (inactive)
SF-539
  GI50: 59 µM (inactive)
SF-295
  GI50: 24.5 µM (inactive)
TK-10
  GI50: 29.6 µM (inactive)
A549
  GI50: 63.2 µM (inactive)
OVCAR-4
  GI50: 23.4 µM (inactive)
SF-268
  GI50: 46.9 µM (inactive)
NCI-H23
  GI50: > 100 µM (inactive)
HCT-116
  GI50: 37.8 µM (inactive)
DU-145
  GI50: > 100 µM (inactive)
NCI-H460
  GI50: 31.5 µM (inactive)
786-0
  GI50: 31.4 µM (inactive)
NCI/ADR-RES
  GI50: > 100 µM (inactive)
LOX IMVI
  GI50: 28.6 µM (inactive)
SW-620
  GI50: 64.3 µM (inactive)
HOP-62
  GI50: 21.3 µM (inactive)
K562
  GI50: 79.6 µM (inactive)
SN12C
  GI50: > 100 µM (inactive)
HL-60
  GI50: > 100 µM (inactive)
HCT-15
  GI50: 42.3 µM
KM12
  GI50: 48.5 µM (inactive)
NCI-H226
  GI50: 28.4 µM (inactive)
IGROV-1
  GI50: 46.1 µM (inactive)
OVCAR-8
  GI50: 40.4 µM (inactive)
SK-MEL-28
  GI50: > 100 µM (inactive)
HOP-92
  GI50: 27 µM (inactive)

## O=C1CC(C(CC(=O)c2ccccc2)c2ccccc2)C(=O)c2ccccc2N1 (configuration not stated)
UACC-257
  GI50: 88.5 µM (inactive)
MCF7
  GI50: 25.9 µM (inactive)
PC-3
  GI50: 25.5 µM (inactive)
SNB-19
  GI50: 51.5 µM (inactive)
EKVX
  GI50: 40.5 µM (inactive)
MOLT-4
  GI50: 17.8 µM (inactive)
UACC-62
  GI50: 31.6 µM (inactive)
MDA-MB-435
  GI50: 50.1 µM (inactive)
A498
  GI50: > 100 µM (inactive)
UO-31
  GI50: 14.2 µM (inactive)
SK-MEL-5
  GI50: 24.2 µM (inactive)
Hs-578T
  GI50: 43.5 µM (inactive)
M14
  GI50: 33.7 µM (inactive)
SR
  GI50: 16 µM (inactive)
MDA-MB-231
  GI50: 49 µM (inactive)
HCC 2998
  GI50: 48.6 µM (inactive)
COLO 205
  GI50: 54.8 µM (inactive)
Malme-3M
  GI50: 28.4 µM (inactive)
OVCAR-3
  GI50: 28.4 µM (inactive)
ACHN
  GI50: 45.3 µM (inactive)
CCRF-CEM
  GI50: 25.9 µM (inactive)
HT-29
  GI50: 32.3 µM (inactive)
RPMI-8226
  GI50: 22.1 µM (inactive)
MDA-N
  GI50: 49.3 µM (inactive)
SNB-75
  GI50: 30.8 µM (inactive)
U-251
  GI50: 84.7 µM (inactive)
OVCAR-5
  GI50: 56 µM (inactive)
SK-MEL-2
  GI50: 16 µM (inactive)
T47D
  GI50: 20.7 µM (inactive)
BT-549
  GI50: 29.1 µM (inactive)
SK-OV-3
  GI50: > 100 µM (inactive)
SF-539
  GI50: 38.3 µM (inactive)
SF-295
  GI50: 37.2 µM (inactive)
A549
  GI50: 38.2 µM (inactive)
SF-268
  GI50: 53.6 µM (inactive)
NCI-H23
  GI50: > 100 µM (inactive)
HCT-116
  GI50: 49.3 µM (inactive)
DU-145
  GI50: 48.6 µM (inactive)
NCI-H460
  GI50: 33.3 µM (inactive)
786-0
  GI50: > 100 µM (inactive)
NCI/ADR-RES
  GI50: 15.1 µM (inactive)
LOX IMVI
  GI50: 35.4 µM (inactive)
SW-620
  GI50: 68.7 µM (inactive)
HOP-62
  GI50: 51.1 µM (inactive)
K562
  GI50: 33.1 µM (inactive)
SN12C
  GI50: 35.7 µM (inactive)
HL-60
  GI50: 31.5 µM (inactive)
HCT-15
  GI50: 33.8 µM
KM12
  GI50: 49.7 µM (inactive)
NCI-H226
  GI50: 24.4 µM (inactive)
IGROV-1
  GI50: > 100 µM (inactive)
OVCAR-8
  GI50: 27.8 µM (inactive)

## CCOC(=O)Cc1ccc(Nc2nc3cc(F)c(F)cc3nc2C(=O)OCC)cc1
UACC-257
  GI50: 44.2 µM (inactive)
MCF7
  GI50: 37.6 µM (inactive)
PC-3
  GI50: 49.5 µM (inactive)
SNB-19
  GI50: 48.2 µM (inactive)
EKVX
  GI50: 22.8 µM (inactive)
MOLT-4
  GI50: 44 µM (inactive)
UACC-62
  GI50: 39.2 µM (inactive)
MDA-MB-435
  GI50: 65.6 µM (inactive)
UO-31
  GI50: 1.52 µM (inactive)
SK-MEL-5
  GI50: 34.5 µM (inactive)
RXF 393
  GI50: 33.9 µM (inactive)
Hs-578T
  GI50: 64.7 µM (inactive)
M14
  GI50: 35.1 µM (inactive)
SR
  GI50: 26.5 µM (inactive)
MDA-MB-231
  GI50: 2.34 µM (inactive)
CAKI-1
  GI50: 19.1 µM (inactive)
HCC 2998
  GI50: 25.6 µM (inactive)
COLO 205
  GI50: 37.2 µM (inactive)
Malme-3M
  GI50: > 100 µM (inactive)
OVCAR-3
  GI50: 47.2 µM (inactive)
ACHN
  GI50: 18.4 µM (inactive)
CCRF-CEM
  GI50: 42.8 µM (inactive)
HT-29
  GI50: 53.7 µM (inactive)
RPMI-8226
  GI50: 39.1 µM (inactive)
MDA-N
  GI50: 45 µM (inactive)
SNB-75
  GI50: 81.8 µM (inactive)
NCI-H522
  GI50: 9.18 µM (inactive)
U-251
  GI50: 28.9 µM (inactive)
OVCAR-5
  GI50: > 100 µM (inactive)
SK-MEL-2
  GI50: 22.9 µM (inactive)
T47D
  GI50: 35.1 µM (inactive)
BT-549
  GI50: 55.6 µM (inactive)
SK-OV-3
  GI50: > 100 µM (inactive)
SF-539
  GI50: > 100 µM (inactive)
SF-295
  GI50: 73.1 µM (inactive)
TK-10
  GI50: > 100 µM (inactive)
A549
  GI50: 74 µM (inactive)
OVCAR-4
  GI50: 57 µM (inactive)
SF-268
  GI50: 64.9 µM (inactive)
NCI-H23
  GI50: 26 µM (inactive)
HCT-116
  GI50: 71.9 µM (inactive)
DU-145
  GI50: 25.9 µM (inactive)
NCI-H460
  GI50: 69.5 µM (inactive)
786-0
  GI50: > 100 µM (inactive)
NCI/ADR-RES
  GI50: 43.9 µM (inactive)
LOX IMVI
  GI50: 28.1 µM (inactive)
SW-620
  GI50: 43.7 µM (inactive)
HOP-62
  GI50: > 100 µM (inactive)
K562
  GI50: 35.7 µM (inactive)
SN12C
  GI50: 74.5 µM (inactive)
HL-60
  GI50: 39.3 µM (inactive)
HCT-15
  GI50: 21.8 µM
KM12
  GI50: > 100 µM (inactive)
NCI-H226
  GI50: 69.3 µM (inactive)
IGROV-1
  GI50: 28.7 µM (inactive)
OVCAR-8
  GI50: 29.2 µM (inactive)
SK-MEL-28
  GI50: 64 µM (inactive)
HOP-92
  GI50: 13.4 µM (inactive)
